In article PMC4715937 (Cancer research, 2016):

Key:
Assay type in all cases: cell-based, human
Heme oxygenase-1 (HMOX1) = assay: HMOX1 quantitative PCR and ELISA in DLBCL cells; conditions: Ly19 cells, inhibitor at 4μM, 24 hours
Ly19 cells = assay: MTS assay of Ly19 cells with pro-oxidant and NF-κB inhibitor; conditions: 3 days; PS-1145 4 μM, pyocyanin 350 μM, single agents
TMD8 cells = assay: MTS cell proliferation assay, TMD8 cells; conditions: antibody alone, 48 hours

Q: For `O=C(Nc1cc(Cl)cc2c1[nH]c1cnccc12)c1cccnc1` [PS-1145], which “HMOX1 induction in the presence of pyocyanin” value (Heme oxygenase-1 (HMOX1)) is on record?
A: reduced HMOX1 induction

Q: And the Ly19 growth (Ly19 cells)?
A: no effect on Ly19 growth

Q: How did the Ly19 growth (Ly19 cells) turn out when `Cn1c2cccc(=O)c-2nc2ccccc21` [pyocyanin] was run?
A: strongly inhibited lymphoma cell growth

Q: Which “cell growth of TMD8” value (TMD8 cells) does the source give for ADALIMUMAB here?
A: inhibited cell growth
